Source: patent US20230144436A1, “MUSCLE TARGETING COMPLEXES AND USES THEREOF FOR TREATING MYOTONIC DYSTROPHY” (Dyne Therapeutics, Inc., priority 2020, published 2023)

Test system: DMPK
Experiment: DMPK knockdown by transfected antisense oligonucleotides in DM1 C15 myotubes at 0.5 nM and 50 nM
Format: cell-based
Conditions: 72 hours, qPCR; for Percent DMPK Reduction: relative to vehicle control; for Normalized DMPK Remaining: relative to vehicle control = 1.00
Protocol: Two hundred and thirty-six oligonucleotides for targeting DMPK were generated using in silico analysis. Each individual oligonucleotide was evaluated for their ability to target DMPK in cellulo at two doses—0.5 nM (low dose) and 50 nM (high dose).
Briefly, DM1 C15 immortalized myoblasts were cultured in T-75 flasks until near confluency (˜80% confluent). Myoblasts were then disrupted with trypsin and seeded into 96-well microplates at a density of 50,000 cells/well. Cells were allowed to recover overnight before the growth media was washed out and replaced with a no-serum media to induce differentiation into myotubes. Differentiation proceeded for seven days prior to treatment with DMPK-targeting oligonucleotides.
On day seven following induction of differentiation, DM1 C15 myotubes were transfected with an individual oligonucleotide using 0.3 μL of Lipofectamine MessengerMax per well. All oligonucleotides were tested at both 0.5 nM and 50 nM final concentrations in biological triplicates. After treatment with oligonucleotides, cells were incubated for 72 hours prior to being harvested for total RNA. cDNA was synthesized from the total RNA extracts and qPCR was performed to determine expression levels of DMPK in technical quadruplicate. All qPCR data were analyzed using a traditional […] method and were normalized to a plate-based negative control that comprised cells treated with vehicle control (0.3 μL/well Lipofectamine MessengerMax without any oligonucleotide). Results from these experiments are shown in Table 10. ‘Normalized DMPK Remaining’ for each antisense oligonucleotide in Table 10 refers to the expression level of DMPK in cell treated with said antisense oligonucleotide relative to the negative control that comprised cells treated with vehicle control (wherein the expression level of the negative control has been normalized to equal 1.00)

290 (GGCCAUGACAAUCUCCGCCA; chemistry not given here) [compound 290]
Percent DMPK Reduction (0.5 nM oligonucleotide): 42.38%
Normalized DMPK Remaining (0.5 nM oligonucleotide): 0.58
Percent DMPK Reduction (50 nM oligonucleotide): 75.00%
Normalized DMPK Remaining (50 nM oligonucleotide): 0.25

291 (AUACUCCAUGACCAGGUACA; chemistry not given here) [compound 291]
Percent DMPK Reduction (0.5 nM oligonucleotide): 23.07%
Normalized DMPK Remaining (0.5 nM oligonucleotide): 0.77
Percent DMPK Reduction (50 nM oligonucleotide): 56.84%
Normalized DMPK Remaining (50 nM oligonucleotide): 0.43

292 (GCCUCUGCCUCGCGUAGUUG; chemistry not given here) [compound 292]
Percent DMPK Reduction (0.5 nM oligonucleotide): 35.38%
Normalized DMPK Remaining (0.5 nM oligonucleotide): 0.65
Percent DMPK Reduction (50 nM oligonucleotide): 81.18%
Normalized DMPK Remaining (50 nM oligonucleotide): 0.19

295 (CCUUGUAGUGGACGAUCUUG; chemistry not given here) [compound 295]
Percent DMPK Reduction (0.5 nM oligonucleotide): 17.20%
Normalized DMPK Remaining (0.5 nM oligonucleotide): 0.83
Percent DMPK Reduction (50 nM oligonucleotide): 65.91%
Normalized DMPK Remaining (50 nM oligonucleotide): 0.34

296 (AUCUCCGCCAGGUAGAAGCG; chemistry not given here) [compound 296]
Percent DMPK Reduction (0.5 nM oligonucleotide): 42.37%
Normalized DMPK Remaining (0.5 nM oligonucleotide): 0.58
Percent DMPK Reduction (50 nM oligonucleotide): 65.50%
Normalized DMPK Remaining (50 nM oligonucleotide): 0.35

297 (CUCAGGCUCUGCCGGGUGAG; chemistry not given here) [compound 297]
Percent DMPK Reduction (0.5 nM oligonucleotide): 30.13%
Normalized DMPK Remaining (0.5 nM oligonucleotide): 0.70
Percent DMPK Reduction (50 nM oligonucleotide): 63.07%
Normalized DMPK Remaining (50 nM oligonucleotide): 0.37

298 (UGCUUCAUCUUCACUACCGC; chemistry not given here) [compound 298]
Percent DMPK Reduction (0.5 nM oligonucleotide): 28.82%
Normalized DMPK Remaining (0.5 nM oligonucleotide): 0.71
Percent DMPK Reduction (50 nM oligonucleotide): 60.24%
Normalized DMPK Remaining (50 nM oligonucleotide): 0.40

300 (GGCCUCAGCCUCUGCCGCAG; chemistry not given here) [compound 300]
Percent DMPK Reduction (0.5 nM oligonucleotide): 20.12%
Normalized DMPK Remaining (0.5 nM oligonucleotide): 0.80
Percent DMPK Reduction (50 nM oligonucleotide): 71.28%
Normalized DMPK Remaining (50 nM oligonucleotide): 0.29

302 (CCACGUAAUACUCCAUGACC; chemistry not given here) [compound 302]
Percent DMPK Reduction (0.5 nM oligonucleotide): 20.84%
Normalized DMPK Remaining (0.5 nM oligonucleotide): 0.79
Percent DMPK Reduction (50 nM oligonucleotide): 50.06%
Normalized DMPK Remaining (50 nM oligonucleotide): 0.50

303 (CCGUUCCAUCUGCCCGCAGC; chemistry not given here) [compound 303]
Percent DMPK Reduction (0.5 nM oligonucleotide): 31.74%
Normalized DMPK Remaining (0.5 nM oligonucleotide): 0.68
Percent DMPK Reduction (50 nM oligonucleotide): 77.46%
Normalized DMPK Remaining (50 nM oligonucleotide): 0.23

304 (UUCCCGAGUAAGCAGGCAGA; chemistry not given here) [compound 304]
Percent DMPK Reduction (0.5 nM oligonucleotide): 31.49%
Normalized DMPK Remaining (0.5 nM oligonucleotide): 0.69
Percent DMPK Reduction (50 nM oligonucleotide): 49.81%
Normalized DMPK Remaining (50 nM oligonucleotide): 0.50

305 (UGAUCUUCAUGGCAUACACC; chemistry not given here) [compound 305]
Percent DMPK Reduction (0.5 nM oligonucleotide): 27.70%
Normalized DMPK Remaining (0.5 nM oligonucleotide): 0.72
Percent DMPK Reduction (50 nM oligonucleotide): 89.68%
Normalized DMPK Remaining (50 nM oligonucleotide): 0.10

306 (AGGGACAGCCGCUGGAACTG; chemistry not given here) [compound 306]
Percent DMPK Reduction (0.5 nM oligonucleotide): 28.72%
Normalized DMPK Remaining (0.5 nM oligonucleotide): 0.71
Percent DMPK Reduction (50 nM oligonucleotide): 45.34%
Normalized DMPK Remaining (50 nM oligonucleotide): 0.55

307 (GGGUUUGAUGUCCCUGUGCA; chemistry not given here) [compound 307]
Percent DMPK Reduction (0.5 nM oligonucleotide): 40.12%
Normalized DMPK Remaining (0.5 nM oligonucleotide): 0.60
Percent DMPK Reduction (50 nM oligonucleotide): 62.61%
Normalized DMPK Remaining (50 nM oligonucleotide): 0.37

308 (UGACAAUCUCCGCCAGGUAG; chemistry not given here) [compound 308]
Percent DMPK Reduction (0.5 nM oligonucleotide): 38.86%
Normalized DMPK Remaining (0.5 nM oligonucleotide): 0.61
Percent DMPK Reduction (50 nM oligonucleotide): 66.56%
Normalized DMPK Remaining (50 nM oligonucleotide): 0.33

309 (CACAGCGGUCCAGCAGGAUG; chemistry not given here) [compound 309]
Percent DMPK Reduction (0.5 nM oligonucleotide): 6.62%
Normalized DMPK Remaining (0.5 nM oligonucleotide): 0.93
Percent DMPK Reduction (50 nM oligonucleotide): 59.58%
Normalized DMPK Remaining (50 nM oligonucleotide): 0.40

311 (CUCAGCCUCUGCCGCAGGGA; chemistry not given here) [compound 311]
Percent DMPK Reduction (0.5 nM oligonucleotide): 17.86%
Normalized DMPK Remaining (0.5 nM oligonucleotide): 0.82
Percent DMPK Reduction (50 nM oligonucleotide): 79.58%
Normalized DMPK Remaining (50 nM oligonucleotide): 0.20

312 (GUCUCAGUGCAUCCAAAACG; chemistry not given here) [compound 312]
Percent DMPK Reduction (0.5 nM oligonucleotide): 18.85%
Normalized DMPK Remaining (0.5 nM oligonucleotide): 0.81
Percent DMPK Reduction (50 nM oligonucleotide): 46.13%
Normalized DMPK Remaining (50 nM oligonucleotide): 0.54

314 (UCAGCAGUGUCAGCAGGUCC; chemistry not given here) [compound 314]
Percent DMPK Reduction (0.5 nM oligonucleotide): 33.46%
Normalized DMPK Remaining (0.5 nM oligonucleotide): 0.67
Percent DMPK Reduction (50 nM oligonucleotide): 61.11%
Normalized DMPK Remaining (50 nM oligonucleotide): 0.39

315 (GCUCCUGGGCGGCGCCAGAC; chemistry not given here) [compound 315]
Percent DMPK Reduction (0.5 nM oligonucleotide): 8.52%
Normalized DMPK Remaining (0.5 nM oligonucleotide): 0.91
Percent DMPK Reduction (50 nM oligonucleotide): 78.79%
Normalized DMPK Remaining (50 nM oligonucleotide): 0.21

317 (AUCCGCUCCUGCAACUGCCG; chemistry not given here) [compound 317]
Percent DMPK Reduction (0.5 nM oligonucleotide): 12.80%
Normalized DMPK Remaining (0.5 nM oligonucleotide): 0.87
Percent DMPK Reduction (50 nM oligonucleotide): 40.06%
Normalized DMPK Remaining (50 nM oligonucleotide): 0.60

318 (AGGAGCAGGGAAAGCGCCUC; chemistry not given here) [compound 318]
Percent DMPK Reduction (0.5 nM oligonucleotide): 33.24%
Normalized DMPK Remaining (0.5 nM oligonucleotide): 0.67
Percent DMPK Reduction (50 nM oligonucleotide): 62.37%
Normalized DMPK Remaining (50 nM oligonucleotide): 0.38

319 (ACACCUGGCCCGUCUGCUUC; chemistry not given here) [compound 319]
Percent DMPK Reduction (0.5 nM oligonucleotide): 33.00%
Normalized DMPK Remaining (0.5 nM oligonucleotide): 0.67
Percent DMPK Reduction (50 nM oligonucleotide): 55.40%
Normalized DMPK Remaining (50 nM oligonucleotide): 0.45

321 (GCUCCCUCUGCCUGCAGCAA; chemistry not given here) [compound 321]
Percent DMPK Reduction (0.5 nM oligonucleotide): 26.41%
Normalized DMPK Remaining (0.5 nM oligonucleotide): 0.74
Percent DMPK Reduction (50 nM oligonucleotide): 70.15%
Normalized DMPK Remaining (50 nM oligonucleotide): 0.30

322 (GCUCAGGCUCUGCCGGGUGA; chemistry not given here) [compound 322]
Percent DMPK Reduction (0.5 nM oligonucleotide): 25.69%
Normalized DMPK Remaining (0.5 nM oligonucleotide): 0.74
Percent DMPK Reduction (50 nM oligonucleotide): 60.71%
Normalized DMPK Remaining (50 nM oligonucleotide): 0.39

323 (UUGAUGUCCCUGUGCACGUA; chemistry not given here) [compound 323]
Percent DMPK Reduction (0.5 nM oligonucleotide): 25.67%
Normalized DMPK Remaining (0.5 nM oligonucleotide): 0.74
Percent DMPK Reduction (50 nM oligonucleotide): 55.13%
Normalized DMPK Remaining (50 nM oligonucleotide): 0.45

324 (GCCUCAGCCUCUGCCGCAGG; chemistry not given here) [compound 324]
Percent DMPK Reduction (0.5 nM oligonucleotide): 16.37%
Normalized DMPK Remaining (0.5 nM oligonucleotide): 0.84
Percent DMPK Reduction (50 nM oligonucleotide): 46.42%
Normalized DMPK Remaining (50 nM oligonucleotide): 0.54

325 (GGUAGUUCUCAUCCUGGAAG; chemistry not given here) [compound 325]
Percent DMPK Reduction (0.5 nM oligonucleotide): 25.48%
Normalized DMPK Remaining (0.5 nM oligonucleotide): 0.75
Percent DMPK Reduction (50 nM oligonucleotide): 56.15%
Normalized DMPK Remaining (50 nM oligonucleotide): 0.44

326 (CAGCGCCCACCAGUCACACU; chemistry not given here) [compound 326]
Percent DMPK Reduction (0.5 nM oligonucleotide): 37.28%
Normalized DMPK Remaining (0.5 nM oligonucleotide): 0.63
Percent DMPK Reduction (50 nM oligonucleotide): 64.93%
Normalized DMPK Remaining (50 nM oligonucleotide): 0.35

327 (CCCAAACUUGCUCAGCAGUG; chemistry not given here) [compound 327]
Percent DMPK Reduction (0.5 nM oligonucleotide): 37.02%
Normalized DMPK Remaining (0.5 nM oligonucleotide): 0.63
Percent DMPK Reduction (50 nM oligonucleotide): 61.78%
Normalized DMPK Remaining (50 nM oligonucleotide): 0.38

328 (CUUGCCAUAGGUCUCCGCCG; chemistry not given here) [compound 328]
Percent DMPK Reduction (0.5 nM oligonucleotide): 27.04%
Normalized DMPK Remaining (0.5 nM oligonucleotide): 0.73
Percent DMPK Reduction (50 nM oligonucleotide): 71.05%
Normalized DMPK Remaining (50 nM oligonucleotide): 0.29

329 (UACACCUGGCCCGUCUGCUU; chemistry not given here) [compound 329]
Percent DMPK Reduction (0.5 nM oligonucleotide): 31.10%
Normalized DMPK Remaining (0.5 nM oligonucleotide): 0.69
Percent DMPK Reduction (50 nM oligonucleotide): 57.43%
Normalized DMPK Remaining (50 nM oligonucleotide): 0.43

330 (CCAGCGCCCACCAGUCACAC; chemistry not given here) [compound 330]
Percent DMPK Reduction (0.5 nM oligonucleotide): 36.17%
Normalized DMPK Remaining (0.5 nM oligonucleotide): 0.64
Percent DMPK Reduction (50 nM oligonucleotide): 70.96%
Normalized DMPK Remaining (50 nM oligonucleotide): 0.29

331 (GGCCUCAGCCUGGCCGAAAG; chemistry not given here) [compound 331]
Percent DMPK Reduction (0.5 nM oligonucleotide): 14.49%
Normalized DMPK Remaining (0.5 nM oligonucleotide): 0.86
Percent DMPK Reduction (50 nM oligonucleotide): 64.80%
Normalized DMPK Remaining (50 nM oligonucleotide): 0.35

332 (AAUCUCCGCCAGGUAGAAGC; chemistry not given here) [compound 332]
Percent DMPK Reduction (0.5 nM oligonucleotide): 35.85%
Normalized DMPK Remaining (0.5 nM oligonucleotide): 0.64
Percent DMPK Reduction (50 nM oligonucleotide): 65.27%
Normalized DMPK Remaining (50 nM oligonucleotide): 0.35

333 (AUGGCAUACACCUGGCCCGU; chemistry not given here) [compound 333]
Percent DMPK Reduction (0.5 nM oligonucleotide): 14.31%
Normalized DMPK Remaining (0.5 nM oligonucleotide): 0.86
Percent DMPK Reduction (50 nM oligonucleotide): 49.63%
Normalized DMPK Remaining (50 nM oligonucleotide): 0.50
